Like-named read-outs stand apart in the source and are kept apart here.
Tests used:
[1] = tested on: Aβ (1-40) secretion by CHO7W cells (stably transfected with human APP751 wt cDNA); assay: Inhibition of Aβ(1-40) secretion (ELISA, cellular supernatants); format: cell-based; conditions: Aβ 1-40 ELISA, read-out: Inhibition secretion beta-amyloid (minimum concentration)
[2] = tested on: SH-SY5Y human neuroblastoma cells; assay: Protection against hydrogen peroxide-induced cell death (LDH); format: cell-based; conditions: Homo sapiens, SH-SY5Y, compound 1 h before H2O2 100 μM, 24 h, read-out: Protect. H2O2 (minimum concentration for which protection was determined)
[3] = Chelating ability with Fe (III) (absorbance spectra); format: physicochemical; conditions: PBS 10 mM, pH 7.4, ligand and Fe(III) 200 μM, FIG. 1
Method: FIG. 1 is an absorbance spectrum of compounds 4, 7, 8 and 10 in absence and presence of Fe(III). PBS 10 mM, pH 7.4. Concentration of ligand and Fe(III), 200 μM.
Only one line is observed, as the spectra are overlapping (see FIG. 1).

[4] = Chelating ability with Cu (II) (absorbance spectra); format: physicochemical; conditions: 200 μM, PBS 10 mM, pH 7.4, FIG. 6
Method: FIG. 6 depicts the absorbance spectra of the mixture of Cu (II) and each of the quelating ligands (Compound 4, Compound 7, Compound 8). Concentration of Cu(II) and all compounds 200 μM, PBS 10 mM, pH 7.4.
FIG. 7 is the absorbance spectra of the complex Cu(II)-Compound 10. Concentration 200 μM, PBS 10 mM, pH 7.4.
Therefore, it may be observed that the compounds of formula (I) have a high affinity to Fe (II) in comparison to the rest of metalic ions tested.

[5] = Screening pharmacokinetic study, plasma and brain (LC-MS/MS); format: in vivo, mice (C57BL6/J); conditions: mice; for Kp / bioavailability / Tmax / half-life / AUC / Cmax: male, C57BL6/J, mouse; for Kp: brain and plasma
Method: The objective of this study is to evaluate the oral bioavailability and the plasmatic and brain pharmacokinetic parameters after oral and intravenous administration, thus determining if compounds of formula (I) are able to cross the blood brain barrier (BBB). […] Each compound was solved in appropriate excipients. In the case of oral administration, compound was administered by means of an oral gavage coupled to a syringe. In the intravenous administration animals, the test item was administered by a single injection with a syringe coupled to a 30 G needle.
Two animals were sacrificed (according to internal SOPs and following animal handling and welfare guidelines) at each selected extraction times (i.e. 30 min, 1 h, 2 h, 4 h, 6 h, 8 h and 24 hours after administration), and from each animal, both brain and blood samples were obtained. Plasma was extracted by centrifugation of the blood samples. Each sample time represents two male mice from which samples were obtained.
The method for the analysis of plasma and brain samples involved isolation of the analyte from the biological matrix by protein precipitation or solid-phase extraction followed by analysis using LC-MS/MS. Limits of quantification for these compounds were in the order of 2-10 ng/mL. The software Winnonlin professional version 5.2 was used for the calculation of pharmacokinetic parameters.
In the following tables, the abbreviations have the meaning indicated below: • AUC=Area under the curve • T1/2=Half-life • Tmax=the time after administration of a drug when the maximum plasma concentration is reached; when the rate of absorption equals the rate of elimination • Cmax=maximum plasma concentration of the drug • V. Adm. and Vol. Adm.=volume of administration

[6] = intravenous route, group 1-2 mg/kg (Compound 4, 8: 1.00; 7: 1.20; 10: 2.00 mg/Kg), brain
[7] = intravenous route, group 1-2 mg/kg (Compound 4, 8: 1.00; 7: 1.20; 10: 2.00 mg/Kg), plasma

CC(C)Sc1cc(/C=N/O)nc2c1ccc1cccnc12 [Compound 7, 4-Isopropylsulfanyl-[1,10]phenanthroline-2-carbaldehyde oxime]
minimal effective concentration [1]: 1 nM | minimal effective concentration [2]: 0.05 µM | Ability to complex Fe (III) (change in absorbance spectra) [3]: no change in the absorbance spectra | Ability to complex Cu (II) (spectrum of mixture vs sum of individual spectra) [4]: none of the ligands are able to complex the Cu (II) | Kp ([5]; iv, brain AUC relative to plasma AUC, intravenous route, group 1-2 mg/kg, read-out: % AUC): 1.04 | Kp ([5]; iv, brain Cmax relative to plasma Cmax, intravenous route, group 1-2 mg/kg, read-out: % Cmax): 3.71 | Kp ([5]; po, 20 mg/kg, brain AUC relative to plasma AUC, 20 mg/kg oral route, read-out: % AUC): 0.278 | Kp ([5]; po, 20 mg/kg, brain Cmax relative to plasma Cmax, 20 mg/kg oral route, read-out: % Cmax): 0.417 | bioavailability ([5]; plasma, 20 mg/kg oral route (low dose)): 7.11% | bioavailability ([5]; plasma, 200 mg/kg oral route (high dose)): 3.19% | Tmax ([5]; 20 mg/kg oral route, brain): 240 min | half-life ([5]; 20 mg/kg oral route, brain): 43.8 min | AUC ([5]; 20 mg/kg oral route, plasma): 378 ng·h/mL | Cmax ([5]; 20 mg/kg oral route, plasma): 106 ng/mL | Tmax ([5]; 20 mg/kg oral route, plasma): 18 min | half-life ([5]; 20 mg/kg oral route, plasma): 99.6 min | AUC ([5]; 200 mg/kg oral route, plasma): 1700 ng·h/mL | Cmax ([5]; 200 mg/kg oral route, plasma): 1210 ng/mL | Tmax ([5]; 200 mg/kg oral route, plasma): 30 min | Tmax [5, 6]: 4.8 min | AUC [5, 7]: 319 ng·h/mL | Cmax [5, 7]: 104 ng/mL | Tmax [5, 7]: 60 min | half-life [5, 7]: 268 min | Cmax Brain ([5]; 20 mg/kg oral route, brain): 19.62 ng/g | Cmax Brain [5, 6]: 386.10 ng/g

Source: US8592446B2, “[1,10]-phenanthroline derivatives for the treatment of neurodegenerative or haematological diseases” (Noscira, S.A., priority 2007, dated 2013)
